This data set is described as follows: solvent given as SMILES.

`O=S(=O)(c1ccc(N2c3ccccc3N(c3ccccc3)c3ccccc32)cc1)c1ccc(N2c3ccccc3N(c3ccccc3)c3ccccc32)cc1` came in with an emission maximum (in Cc1ccccc1) of 577 nm and an emission maximum (in c1cc(-n2c3ccccc3c3ccccc32)cc(-n2c3ccccc3c3ccccc32)c1) of 580 nm.

`CCN(CC)c1c2ccc(=[N+]3CCCCC3)cc-2oc2cc(N3CCCCC3)ccc12` displayed an emission maximum (in ClCCl) of 558 nm.

Turning to `CCOC(=O)c1c(-c2cc3ccc(OC)cc3oc2=O)nn(-c2cccc(C)c2)c1C(=O)OCC`, the emission maximum (in ClCCl) is recorded as 422 nm.

Consider `Cc1c(C(=O)c2ccccc2)c2ccc3cccc4c5cccc6ccc1c(c65)c2c34`, for which the emission maximum (in ClCCl) is given as 478 nm.

Regarding `N#Cc1c2nc3ccccn3c2nc2c1nc1ccccn12`, the emission maximum (in C1CCCCC1) is recorded as 460 nm; the emission maximum (in C1COCCO1) was determined as 470 nm; the emission maximum (in CC#N) is recorded as 495 nm; the emission maximum (in CN(C)C=O) was 515 nm; the emission maximum (in ClC(Cl)Cl) is on record as 475 nm.

In turn, `CCCCn1c2ccccc2c2ccc3c4cc(-c5ccc6ccccc6c5)ccc4n(CCCC)c3c21` gave an emission maximum (in ClC(Cl)Cl) of 410 nm.

For `Cc1ccc(/C2=c3\cc/c(o3)=C(\c3ccc(C)cc3)c3ccc([nH]3)-c3ccc4n3[B-](F)(F)[N+]3=C(C=CC3=C4c3ccc[nH]3)c3ccc2[nH]3)cc1`, where the note is “in ClC(Cl)Cl”, the emission maximum came to 729 nm.

In the case of `CC(C)CCC[C@@H](C)[C@H]1CC[C@H]2[C@@H]3CC=C4C[C@@H](OC(=O)Oc5cc(/C=C/C=C/c6ccc(N(C)C)cc6)ccc5[N+](=O)[O-])CC[C@]4(C)[C@H]3CC[C@]12C`, the emission maximum is recorded as 505 nm (in C1CCCCC1); 677 nm (in C1CCOC1); 620 nm (in C1COCCO1); 502 nm (in CCCCCCC); 595 nm (in Cc1ccccc1).

With `CC(C)(C)c1ccc2c(c1)c1cc(C(C)(C)C)ccc1n2-c1cccc2c1Oc1c(-c3nc(-c4ccccc4)nc(-c4ccccc4)n3)cccc1C2(C)C`, the emission maximum reads like this: (in C1CCCCC1) 428 nm; (in CC(C)=O) 503 nm; (in Cc1ccccc1) 451 nm; (in ClC(Cl)Cl) 489 nm.

Under “in C1CCCCC1”, `COc1ccc2c3c(c4ccc(OC)cc4c2c1)C(C)(C)c1c-3ccc2ccccc12` showed an emission maximum of 396 nm.

Compound `CC/[NH+]=c1\cc2oc3cc(NCCC(=O)NC(C(=O)OC)c4ccccc4)c4ccccc4c3nc-2cc1C` (centres undefined) gave an emission maximum (in CCO) of 644 nm and an emission maximum (in O) of 657 nm.

As to `CC(=O)c1ccc2ccc3c(NCCC(=O)NCCCCCCc4nc5c(=O)[nH]c(N)nc5n4[C@H]4C[C@H](O)[C@@H](CO)O4)ccc4ccc1c2c43`, the emission maximum (in C1CCOC1) came to 523 nm; the emission maximum (in CC#N) turned out to be 546 nm; the emission maximum (in CC(C)O) turned out to be 557 nm; the emission maximum (in CCO) is recorded as 559 nm; the emission maximum (in CN(C)C=O) was determined as 543 nm; the emission maximum (in CO) is on record as 565 nm. The same compound displayed an emission maximum (in CS(C)=O) of 551 nm, an emission maximum (in O) of 573 nm and an emission maximum (in OCC(O)CO) of 567 nm.

As for `COc1ccc(-c2c3ccccc3c(-c3ccc(OC)cc3)c3cc4ccccc4cc23)cc1`, the emission maximum (in ClCCl) is on record as 511 nm.

As to `COc1ccc(C2=CC(c3cc(OC)cc(OC)c3)=[O+][B-](F)(F)O2)cc1`, the emission maximum by setting is: (in CC#N) 587.1 nm; (in CC(C)=O) 556.04 nm; (in CCCCCC) 410.21 nm; (in Cc1ccccc1) 450.94 nm; (in ClCCl) 525 nm.

`CCCCCCCCOC(=O)c1ccc(-c2cc3ccc4cc(-c5ccc(C(=O)OCCCCCCCC)cc5)cc5ccc(c2)c3c45)cc1` registered an emission maximum (in Cc1ccccc1) of 421 nm.

With `Oc1ccccc1/C=N/c1ccc(Cn2cncn2)cc1`, the emission maximum reads like this: (in C1CCOC1) 363.99 nm; (in C1COCCO1) 324 nm; (in CC#N) 428.01 nm; (in CC(C)=O) 381 nm; (in CC(C)O) 367 nm; (in CCCCCC) 314 nm. Also, the emission maximum is, setting by setting: (in CCCCO) 368 nm; (in CCO) 407 nm; (in CCOC(C)=O) 357 nm; (in CCOCC) 346 nm; (in CN(C)C=O) 397.99 nm; (in CO) 430 nm. The emission maximum runs as follows: (in CS(C)=O) 437.01 nm; (in Cc1ccccc1) 326 nm; (in ClCCl) 363 nm.

Where the note is “in Cc1ccccc1”, `COc1ccc(-c2n[n+]3c(s2)N=C(c2ccccc2)O[B-]3(F)F)cc1` came in with an emission maximum of 436 nm.

For the compound `Cn1cc(-c2nc3ccccc3nc2C#Cc2ccc(C#N)cc2)c2ccccc21`, the emission maximum (in ClCCl) amounted to 520 nm.

Take `OCCSc1cccc2[n+]1[B-](F)(F)n1c(c3cccc4cccc1c43)=N2`: the emission maximum was found to be 505 nm (in C1CCOC1); 502 nm (in CC#N); 497 nm (in CCCCCC); 505 nm (in Cc1ccccc1); 501 nm (in ClCCl).

As to `NS(=O)(=O)c1ccc(N2N=C(c3ccc(O)cc3)CC2c2ccccc2)cc1` (centres undefined), the emission maximum runs as follows: (in C1CCOC1) 418 nm; (in C1COCCO1) 417 nm; (in CC#N) 417 nm; (in CC(C)O) 423 nm; (in CCO) 428 nm; (in CCOC(C)=O) 416 nm. In addition, the emission maximum (in CN(C)C=O) was 422 nm, the emission maximum (in CO) is listed as 432 nm, the emission maximum (in CS(C)=O) was 424 nm and the emission maximum (in O) was 448 nm.

As to `F[B-]1(F)n2c(cc3ccc4ccccc4c32)C(c2ccc(I)cc2)=C2C=C3CCc4ccccc4C3=[N+]21`, the emission maximum (in ClC(Cl)Cl) is reported as 668 nm.

Consider `c1ccc(-c2oc(-c3ccccc3)c3ccccc23)cc1`, for which the emission maximum by setting is: (in C1CCCCC1) 448 nm; (in C1CCOC1) 451 nm; (in CC#N) 452 nm; (in CCO) 451 nm; (in CN(C)C=O) 458 nm; (in CS(C)=O) 460 nm. In addition, for the setting “in Cc1ccccc1”, the emission maximum amounted to 454 nm.

In turn, `CC(C)(C)c1cc(C(C)(C)C)c(-c2nnc(-c3ccc(-n4c5ccccc5c5ccccc54)cc3)o2)c(C(C)(C)C)c1` registered an emission maximum (in CCO) of 432 nm and an emission maximum (in Cc1ccccc1) of 376 nm.

`COc1ccc2cc(C3=[N+]4C(=Nc5c(-c6ccccc6)cc(-c6ccc7cc(OC)ccc7c6)n5[B-]4(F)F)C(c4ccccc4)=C3Br)ccc2c1`: the emission maximum was 728 nm (in ClC(Cl)Cl) and 728 nm (in ClCCl).

On to `CCCCn1c2ccccc2c2cc(C#Cc3ccc4ccc5cccc6ccc3c4c56)ccc21`, for which the emission maximum (in ClCCl) amounted to 450 nm.

Regarding `C[Si](C)(C)c1sc([Si](C)(C)C)c2c1sc1c3sc4c(sc5c4sc4c([Si](C)(C)C)sc([Si](C)(C)C)c45)c3sc12`, the emission maximum (in ClC(Cl)Cl) amounted to 442 nm.

`CN(C)c1ccc(-c2ccc(/C=C/c3ccncn3)cc2)cc1` had an emission maximum (in ClCCl) of 570 nm.

Compound `c1ccc(-c2nc(-c3ccccc3)c(-c3ccccc3)o2)cc1` had an emission maximum (in Cc1ccccc1) of 381 nm.

For `CN(C)c1nc(N)nc2c1nc(C#N)n2Cc1ccccc1`, the emission maximum is recorded as 373 nm (in C1COCCO1), 378 nm (in CC#N), 389 nm (in CO) and 375 nm (in ClCCl).

Turning to `CCOC(=O)c1cc(C(=O)OCC)c2cc(O)ccc2n1`, the emission maximum (in CCO) is reported as 466 nm.

`c1ccc(/C(=C(\c2ccccc2)c2cc(-c3ccccc3)ccc2-c2ccccc2)c2cc(-c3ccccc3)ccc2-c2ccccc2)cc1`: the emission maximum (in C1CCOC1) came out at 489 nm.

Under “in O”, `CCn1c(-c2ccc(-c3ccc(-c4ccc(-c5n(CC)c6ccccc6[n+]5CC)cc4)c(C)c3)cc2)[n+](CC)c2ccccc21` showed an emission maximum of 400 nm.

For `CN1/C(=C/C=C(/C=C/C2=[N+](C)c3ccccc3C2(C)C)c2ccc(C(F)(F)F)cc2)C(C)(C)c2ccccc21`, the emission maximum reads like this: (in CCO) 665 nm; (in CO) 659 nm; (in CS(C)=O) 665 nm; (in O) 658 nm.

Consider `CCC1(CC)c2cc(B(c3c(C)cc(C)cc3C)c3c(C)cc(C)cc3C)ccc2-c2ccc(N(c3ccccc3)c3ccc4c(c3)C(CC)(CC)c3cc(B(c5c(C)cc(C)cc5C)c5c(C)cc(C)cc5C)ccc3-4)cc21`, for which the emission maximum (in C1CCOC1) is given as 490 nm; the emission maximum (in CC#N) came out at 538 nm; the emission maximum (in CC(C)=O) was 515 nm; the emission maximum (in CCCCCC) turned out to be 445 nm; the emission maximum (in CN(C)C=O) is on record as 533 nm; the emission maximum (in Cc1ccccc1) is reported as 461 nm. This compound also showed an emission maximum (in ClC(Cl)Cl) of 477 nm.

Turning to `CCCCCCCCCCCCN1C(=O)c2c(c3ccc4cc(-c5cccs5)c(OC)cc4c3c3c2ccc2cc(-c4cccs4)c(OC)cc23)C1=O`, the emission maximum (in ClCCl) is 545 nm.

The compound `CCOC(=O)c1c(-c2cc3cc(OC)ccc3oc2=O)nn(-c2cccc(Cl)c2)c1C(=O)OCC` came in with an emission maximum (in ClCCl) of 445 nm.

`COc1ccc2c3c(c4ccc(OC)cc4c2c1)C1(c2ccccc2-c2ccccc21)c1ccccc1-3` showed an emission maximum (in C1CCCCC1) of 389 nm.

For `CCn1c2ccc(-c3ccc(-c4cccs4)s3)cc2c2cc(-c3ccc(-c4cccs4)s3)ccc21`, the emission maximum (in ClCCl) is given as 430 nm.

Turning to `COc1c2ccccc2c(-c2ccccc2)c2ccccc12`, the emission maximum is, setting by setting: (in C1COCCO1) 424 nm; (in CCCCCC) 420 nm; (in CCCCCCC) 420 nm; (in CCCCO) 426 nm; (in CCO) 426 nm; (in CN(C)C=O) 426 nm. The emission maximum (in Cc1ccccc1) is reported as 419 nm; the emission maximum (in ClC(Cl)(Cl)Cl) is 426 nm; the emission maximum (in ClC(Cl)Cl) came out at 426 nm; the emission maximum (in ClCCl) was 426 nm; the emission maximum (in OCC(O)CO) turned out to be 426 nm; the emission maximum (in OCCO) was 426 nm.

`Oc1ccc2ccccc2c1/C=N/c1ccccc1/N=C/c1c(O)ccc2ccccc12` yielded an emission maximum (in CC#N) of 496 nm.

For `CCN(CC)c1ccc2cc(/C=C/c3ccccc3)c(=O)oc2c1`, the emission maximum (in CC#N) was 477 nm.
